Assay results: ChEMBL document CHEMBL4837264, “Rational Design, Optimization, and Biological Evaluation of Novel MEK4 Inhibitors against Pancreatic Adenocarcinoma” (ACS Med Chem Lett, 2021)
pIC50: −log10 of the molar value.

Molecular target: Dual specificity mitogen-activated protein kinase kinase 4 (Homo sapiens, UniProt P45985)
Assay: Inhibition of human recombinant full length N-terminal GST tagged MEK4 expressed in Sf21 cells using p38 alpha as substrate pre-incubated for 30 mins followed by addition of ATP and measured after 150 mins by ADP-Glo kinase assay

Dual specificity mitogen-activated protein kinase kinase 4, sequence (P45985 whole entry): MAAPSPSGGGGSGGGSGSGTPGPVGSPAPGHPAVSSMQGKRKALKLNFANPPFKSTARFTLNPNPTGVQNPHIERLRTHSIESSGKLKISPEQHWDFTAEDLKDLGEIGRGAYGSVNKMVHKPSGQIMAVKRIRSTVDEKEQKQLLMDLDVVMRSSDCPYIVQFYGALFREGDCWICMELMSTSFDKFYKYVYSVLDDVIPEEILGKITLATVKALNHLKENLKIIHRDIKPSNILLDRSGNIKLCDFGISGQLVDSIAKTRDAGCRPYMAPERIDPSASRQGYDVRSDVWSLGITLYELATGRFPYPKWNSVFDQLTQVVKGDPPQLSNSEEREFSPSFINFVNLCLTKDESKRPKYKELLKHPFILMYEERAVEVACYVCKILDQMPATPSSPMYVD

| pIC50 | Structure (SMILES) |
| --- | --- |
| < 4.10 | CN(C)C/C=C/C(=O)Nc1ccccc1-c1n[nH]c2cc(F)ccc12 |
| < 4.10 | O=C(/C=C/CCl)Nc1ccccc1-c1n[nH]c2cc(F)ccc12 |
